Test results published in patent US9586968B2, “Bicycloamine-substituted-N-benzenesulfonamide compounds with selective activity in voltage-gated sodium channels” (Merck Sharp & Dohme Corp., priority 2013, dated 2017).

Assays:
human Nav1.5 = target: T1, human Nav1.5 (Homo sapiens, UniProt Q14524); assay: PatchXpress automated patch-clamp, inactivated state block of Nav1.5 (selectivity); assay type: cell-based; conditions: determined by PatchXpress measurement, HEK 293 cells
T1 construct: expressed in transfected cells
Experimental: (§1) Compounds were tested on human Nav1.7 and Nav1.5 channels stably expressed in HEK 293 cells. Activity toward Nav 1.7 and Nav 1.5 channels was assessed using the following assay methodology.
(§2) Sodium Current Measurements on the PatchXpress 7000®:
(§3) To measure inactivated state block of sodium channels, test compounds were characterized in an automated PatchXpress® assay (Molecular Devices) using a double-pulse protocol on human Nav1.7 and Nav1.5 channels stably expressed in HEK 293 cells. Cells were held at a potential 20 mV negative to V0.5 inact. An 8000 ms pre-pulse 7 mV positive to V0.5 inact was given followed by a hyperpolarizing 2 ms pulse to −120 mV and a 20 ms test pulse to −20 mV. Protocol was applied to cells in the absence, presence of compound and after washout. The temperature of PatchXpress instruments was maintained at 22° C. The following recording solutions were used. Internal solution (mM): 30 CsCl, 5 HEPES, 10 EGTA, 120 CsF, 5 NaF, 2 MgCl2. External solution (mM): 120 NMDG, 40 NaCl, 1 KCl, 0.5 MgCl2, 5 HEPES, 2.7 CaCl2.
(§4) For all electrophysiology experiments, offline analysis was used to correct for current rundown and to determine percent inhibition as a function of drug concentration. IC50 values were determined by fitting to the Hill equation.

human Nav1.7 = target: T2, human Nav1.7 (Homo sapiens, UniProt Q15858); assay: PatchXpress automated patch-clamp, inactivated state block of Nav1.7; assay type: cell-based; conditions: channels stably expressed in HEK 293 cells, 22° C., read-out: potency for the Nav 1.7 sodium ion channel (as measured by PatchXpress)
T2 construct: expressed in transfected cells
Experimental: as §1, §2, §3, §4

T1 sequence (Q14524 whole entry): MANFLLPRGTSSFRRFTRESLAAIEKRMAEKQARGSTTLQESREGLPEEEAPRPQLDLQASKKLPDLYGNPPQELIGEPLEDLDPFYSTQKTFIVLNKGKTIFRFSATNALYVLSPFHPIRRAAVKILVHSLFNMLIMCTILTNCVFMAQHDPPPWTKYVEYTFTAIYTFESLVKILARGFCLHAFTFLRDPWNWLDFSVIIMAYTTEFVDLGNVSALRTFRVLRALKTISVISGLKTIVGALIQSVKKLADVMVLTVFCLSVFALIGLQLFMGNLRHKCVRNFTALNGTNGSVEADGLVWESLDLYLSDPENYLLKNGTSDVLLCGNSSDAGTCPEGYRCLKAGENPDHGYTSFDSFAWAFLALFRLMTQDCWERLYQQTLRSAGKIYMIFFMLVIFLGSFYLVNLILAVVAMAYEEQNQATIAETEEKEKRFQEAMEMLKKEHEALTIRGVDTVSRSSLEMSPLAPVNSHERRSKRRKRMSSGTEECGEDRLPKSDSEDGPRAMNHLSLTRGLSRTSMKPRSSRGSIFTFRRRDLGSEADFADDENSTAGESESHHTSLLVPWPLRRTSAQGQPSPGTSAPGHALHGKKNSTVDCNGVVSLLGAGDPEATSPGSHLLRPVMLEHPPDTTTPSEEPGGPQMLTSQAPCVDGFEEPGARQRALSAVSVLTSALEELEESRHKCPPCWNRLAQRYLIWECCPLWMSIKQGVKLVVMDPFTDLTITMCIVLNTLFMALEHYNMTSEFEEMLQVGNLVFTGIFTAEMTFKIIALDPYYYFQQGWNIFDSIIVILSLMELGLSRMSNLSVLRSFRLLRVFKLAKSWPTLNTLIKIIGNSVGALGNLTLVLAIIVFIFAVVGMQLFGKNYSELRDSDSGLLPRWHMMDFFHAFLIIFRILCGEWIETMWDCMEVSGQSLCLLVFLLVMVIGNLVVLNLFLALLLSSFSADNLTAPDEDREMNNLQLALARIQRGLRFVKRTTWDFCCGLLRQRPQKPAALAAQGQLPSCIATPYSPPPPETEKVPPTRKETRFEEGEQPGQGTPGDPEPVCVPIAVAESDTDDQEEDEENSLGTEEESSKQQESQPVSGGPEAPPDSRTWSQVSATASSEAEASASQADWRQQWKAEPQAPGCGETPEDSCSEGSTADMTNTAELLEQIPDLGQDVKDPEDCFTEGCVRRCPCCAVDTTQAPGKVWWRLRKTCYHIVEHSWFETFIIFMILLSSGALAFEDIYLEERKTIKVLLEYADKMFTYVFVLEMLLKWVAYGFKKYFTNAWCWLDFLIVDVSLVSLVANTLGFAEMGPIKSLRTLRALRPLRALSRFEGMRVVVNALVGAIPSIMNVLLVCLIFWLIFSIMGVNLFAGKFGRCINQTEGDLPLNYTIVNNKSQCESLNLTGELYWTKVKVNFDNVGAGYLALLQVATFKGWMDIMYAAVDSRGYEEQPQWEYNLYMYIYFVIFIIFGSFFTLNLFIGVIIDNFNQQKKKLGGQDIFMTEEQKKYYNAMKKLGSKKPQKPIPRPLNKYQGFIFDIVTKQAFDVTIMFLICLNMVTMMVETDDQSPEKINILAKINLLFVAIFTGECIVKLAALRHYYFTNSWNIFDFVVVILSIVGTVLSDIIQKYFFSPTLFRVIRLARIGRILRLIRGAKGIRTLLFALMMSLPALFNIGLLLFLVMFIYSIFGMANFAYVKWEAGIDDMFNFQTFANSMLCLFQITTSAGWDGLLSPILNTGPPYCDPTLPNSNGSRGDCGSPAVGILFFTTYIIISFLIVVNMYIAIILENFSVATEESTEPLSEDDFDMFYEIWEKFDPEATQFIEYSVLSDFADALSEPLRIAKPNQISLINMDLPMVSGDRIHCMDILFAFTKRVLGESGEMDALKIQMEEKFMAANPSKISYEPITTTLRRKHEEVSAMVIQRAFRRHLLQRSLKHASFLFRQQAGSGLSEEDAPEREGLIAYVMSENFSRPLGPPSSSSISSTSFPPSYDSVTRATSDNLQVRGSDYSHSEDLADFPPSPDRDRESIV
T2 sequence (Q15858 whole entry): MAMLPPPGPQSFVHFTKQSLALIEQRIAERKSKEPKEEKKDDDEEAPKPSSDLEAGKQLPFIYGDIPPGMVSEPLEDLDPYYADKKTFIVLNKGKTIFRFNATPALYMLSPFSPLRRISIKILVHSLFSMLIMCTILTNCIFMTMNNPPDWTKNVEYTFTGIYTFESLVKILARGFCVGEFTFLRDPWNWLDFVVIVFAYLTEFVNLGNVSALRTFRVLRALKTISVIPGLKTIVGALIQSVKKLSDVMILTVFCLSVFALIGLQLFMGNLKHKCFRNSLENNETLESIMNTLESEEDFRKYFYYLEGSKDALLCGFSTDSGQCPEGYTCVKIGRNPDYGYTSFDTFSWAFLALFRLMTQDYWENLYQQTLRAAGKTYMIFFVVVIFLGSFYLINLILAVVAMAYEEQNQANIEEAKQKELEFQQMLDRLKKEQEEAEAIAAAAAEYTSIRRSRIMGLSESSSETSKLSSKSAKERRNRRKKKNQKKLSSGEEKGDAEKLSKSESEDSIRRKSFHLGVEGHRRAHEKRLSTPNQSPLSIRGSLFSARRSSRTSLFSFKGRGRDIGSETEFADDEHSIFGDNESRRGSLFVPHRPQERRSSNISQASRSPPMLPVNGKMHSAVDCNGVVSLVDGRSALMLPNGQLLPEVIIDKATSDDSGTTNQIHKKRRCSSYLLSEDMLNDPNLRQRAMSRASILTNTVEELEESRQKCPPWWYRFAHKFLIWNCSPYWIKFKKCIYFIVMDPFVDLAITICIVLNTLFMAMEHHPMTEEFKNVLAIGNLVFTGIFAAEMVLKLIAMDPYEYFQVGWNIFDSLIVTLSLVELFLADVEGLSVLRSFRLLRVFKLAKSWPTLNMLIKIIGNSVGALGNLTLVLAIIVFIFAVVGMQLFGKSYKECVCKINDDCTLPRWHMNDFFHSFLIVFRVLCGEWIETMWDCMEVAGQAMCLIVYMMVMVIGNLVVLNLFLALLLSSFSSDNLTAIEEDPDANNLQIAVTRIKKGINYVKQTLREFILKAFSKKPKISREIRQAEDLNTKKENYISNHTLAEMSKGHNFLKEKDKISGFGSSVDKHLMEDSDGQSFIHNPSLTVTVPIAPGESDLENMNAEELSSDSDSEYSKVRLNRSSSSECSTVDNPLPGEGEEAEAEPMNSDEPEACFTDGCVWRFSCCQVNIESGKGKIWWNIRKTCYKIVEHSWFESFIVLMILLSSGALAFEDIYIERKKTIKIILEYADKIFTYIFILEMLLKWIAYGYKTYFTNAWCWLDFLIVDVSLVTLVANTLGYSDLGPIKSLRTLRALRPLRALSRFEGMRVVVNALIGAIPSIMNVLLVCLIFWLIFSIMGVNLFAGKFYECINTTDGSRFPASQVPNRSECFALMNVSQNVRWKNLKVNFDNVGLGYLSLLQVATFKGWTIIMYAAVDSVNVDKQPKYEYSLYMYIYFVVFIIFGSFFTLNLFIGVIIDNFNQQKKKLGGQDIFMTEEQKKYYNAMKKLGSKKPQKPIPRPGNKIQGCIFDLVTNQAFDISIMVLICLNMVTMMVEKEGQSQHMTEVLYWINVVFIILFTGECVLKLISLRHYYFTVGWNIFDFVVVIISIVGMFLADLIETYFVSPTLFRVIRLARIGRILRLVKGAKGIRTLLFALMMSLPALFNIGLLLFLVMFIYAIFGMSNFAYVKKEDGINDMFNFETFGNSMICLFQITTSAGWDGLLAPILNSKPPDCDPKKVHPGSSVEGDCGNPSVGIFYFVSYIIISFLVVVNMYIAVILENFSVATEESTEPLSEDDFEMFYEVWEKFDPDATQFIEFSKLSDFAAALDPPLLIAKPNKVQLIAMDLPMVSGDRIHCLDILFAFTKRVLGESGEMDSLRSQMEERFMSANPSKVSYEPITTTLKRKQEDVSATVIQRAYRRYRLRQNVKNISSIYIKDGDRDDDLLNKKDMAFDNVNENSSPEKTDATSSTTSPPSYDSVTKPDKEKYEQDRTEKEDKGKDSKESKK

IC50 (human Nav1.7)	SMILES	ratio of Nav1.7 potency:Nav 1.5 potency (human Nav1.5)
0.027 µM	CC1CN2CCCC2(CNc2ccc(S(=O)(=O)Nc3nccs3)cc2C#N)C1 (racemic) [Ex4-8, 3-cyano-4-{[((2S,7aR and 2R,7aS)-2-methyltetrahydro-1H-pyrrolizin-7a(5H)-yl)methyl]amino}-N-(1,3-thiazol-2-yl)benzenesulfonamide]	1109
0.472 µM	N#Cc1cc(S(=O)(=O)Nc2nccs2)ccc1NCC12CCCN1CC(F)(F)C2 (racemic) [Ex6-6, (R and S)-3-cyano-4-{[(2,2-difluorotetrahydro-1H-pyrrolizin-7a(5H)-yl)methyl]amino}-N-(1,3-thiazol-2-yl)benzenesulfonamide]	64
1.3 µM	O=S(=O)(Nc1ncc(Cl)s1)c1cc(Cl)c(NCC23CCCN2CC(F)(F)C3)cc1F (racemic) [Ex6-8, (R and S)-5-chloro-N-(5-chloro-1,3-thiazol-2-yl)-4-{[(2,2-difluorotetrahydro-1H-pyrrolizin-7a(5H)-yl)methyl]amino}-2-fluorobenzenesulfonamide]	19
0.032 µM	Cc1csc(NS(=O)(=O)c2cc(Cl)c(NCC34CCCN3CC(C)(C)C4)cc2F)n1 (racemic) [Ex8-25, (R and S)-5-chloro-4-(((2,2-dimethylhexahydro-1H-pyrrolizin-7a-yl)methyl)amino)-2-fluoro-N-(4-methylthiazol-2-yl)benzenesulfonamide]	947
0.059 µM	O=S(=O)(Nc1nccs1)c1cc(Cl)c(NCC23CCCN2C(CF)CC3)cc1F (racemic) [Ex14-10, 5-chloro-2-fluoro-4-((((3S,7aS and 3R,7aR)-3-(fluoromethyl)hexahydro-1H-pyrrolizin-7a-yl)methyl)amino)-N-(thiazol-2-yl)benzenesulfonamide]	509
0.052 µM	CC(Nc1cc(F)c(S(=O)(=O)Nc2nccs2)cc1Cl)C12CCCN1CCC2 (single isomer, unassigned) [Ex5-8, 5-chloro-2-fluoro-4-{[(R or S)1-(tetrahydro-1H-pyrrolizin-7a(5H)-yl)ethyl]amino}-N-(1,3-thiazol-2-yl)benzenesulfonamide]	407
1.09 µM	CC(Nc1cc(F)c(S(=O)(=O)Nc2nccs2)cc1Cl)C12CCCN1CCC2 (single isomer, unassigned) [Ex5-9, 5-chloro-2-fluoro-4-{[(1S or R)-1-(tetrahydro-1H-pyrrolizin-7a(5H)-yl)ethyl]amino}-N-(1,3-thiazol-2-yl)benzenesulfonamide]	26
0.014 µM	CC1(C)CN2CCCC2(CNc2cc(F)c(S(=O)(=O)Nc3ncc(Cl)s3)cc2Cl)C1 (single isomer, unassigned) [Ex8-19-A, (R or S) 5-chloro-N-(5-chlorothiazol-2-yl)-4-(((2,2-dimethylhexahydro-1H-pyrrolizin-7a-yl)methyl)amino)-2-fluorobenzenesulfonamide]	812
0.135 µM	CC1(C)CN2CCCC2(CNc2cc(F)c(S(=O)(=O)Nc3ncc(Cl)s3)cc2Cl)C1 (single isomer, unassigned) [Ex8-19-B, (S or R) 5-chloro-N-(5-chlorothiazol-2-yl)-4-(((2,2-dimethylhexahydro-1H-pyrrolizin-7a-yl)methyl)amino)-2-fluorobenzenesulfonamide]	265
0.009 µM	CC1CN2CCCC2(CNc2cc(F)c(S(=O)(=O)Nc3nccs3)cc2Cl)C1 [Ex4-9, 5-chloro-2-fluoro-4-{[((2S,7aR and 2R,7aS)-2-methyl-tetrahydro-1H-pyrrolizin-7a(5H)-yl)methyl]amino}-N-(1,3-thiazol-2-yl)-benzenesulfonamide]	–
